Results: the supplement of paper PMC10331698
± gives the standard deviation of the averaged measurements.

Legend:
Assay in all cases: level (log10 ratio to DMSO vehicle control); higher = higher biomarker level / cell amount than vehicle control
[1] = compound: CCOC(=O)CC(=O)C(F)(F)C(F)(F)F [Ethyl pentafluoropropionyl acetate] (in DMSO)
Description: (§1)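 BioMAP Diversity Plus panel of 12 human primary cell co-culture systems (3C, 4H, LPS, SAg, BT, BF4T, BE3C, CASM3C, HDF3CGF, KF3CT, MyoF, Mphg). Compounds were added 1 h before stimulation and left for 24 h (MyoF 48 h; BT 72 h for soluble read-outs or 6 d for IgG). Biomarkers were read by ELISA, cytotoxicity by SRB, PBMC viability and proliferation by Alamar Blue. Each well value was divided by the mean of 8 DMSO control wells on the same plate and log10 transformed; duplicate blinded samples were tested at 4 concentrations.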

[2] = compound: NS(=O)(=O)C(F)(F)C(F)(F)C(F)(F)C(F)(F)C(F)(F)C(F)(F)C(F)(F)C(F)(F)F [Perfluorooctanesulfonamide] (in DMSO)
Description: as §1

[3] = compound: O=C(O)C(F)(F)OC(F)(F)C(F)(F)OC(F)(F)C(F)(F)OC(F)(F)C(F)(F)C(F)(F)C(F)(F)F [Perfluoro-3,6,9-trioxatridecanoic acid] (in DMSO); conditions: 6700 nM
Description: as §1

[4] = compound: O=C(O)C=C(C(F)(F)F)C(F)(F)F [3,3-Bis(trifluoromethyl)-2-propenoic acid] (in DMSO)
Description: as §1

[5] = compound: O=C(O)CCC(F)(C(F)(F)F)C(F)(F)F [4,4-bis(Trifluoromethyl)-4-fluoropropanoic acid] (in DMSO)
Description: as §1

[6] = compound: O=S(=O)(O)C(F)(F)C(F)(F)OC(F)(F)C(F)(F)F [Perfluoro(2-ethoxyethane)sulfonic acid] (in DMSO)
Description: as §1

[7] = compound: O=S(=O)(O)CCC(F)(F)C(F)(F)C(F)(F)C(F)(F)C(F)(F)C(F)(F)C(F)(F)C(F)(F)F [8:2 Fluorotelomer sulfonic acid] (in DMSO)
Description: as §1

| Test System | level (log10) ([1]; 6700 nM) | level (log10) ([1]; 20000 nM) | level (log10) ([1]; 60000 nM) | level (log10) ([2]; 6700 nM) | level (log10) ([2]; 20000 nM) | level (log10) [3] | level (log10) ([4]; 6700 nM) | level (log10) ([4]; 20000 nM) | level (log10) ([4]; 60000 nM) | level (log10) ([5]; 6700 nM) | level (log10) ([5]; 20000 nM) | level (log10) ([5]; 60000 nM) | level (log10) ([6]; 6700 nM) | level (log10) ([6]; 20000 nM) | level (log10) ([6]; 60000 nM) | level (log10) ([7]; 6700 nM) | level (log10) ([7]; 20000 nM) | level (log10) ([7]; 60000 nM) |
| --- | --- | --- | --- | --- | --- | --- | --- | --- | --- | --- | --- | --- | --- | --- | --- | --- | --- | --- |
| MyoF:MMP-1 | -0.0245 ± 0.03 | -0.0125 ± 0.011 | 0.034 ± 0.058 | -0.038 ± 0.013 | 0.0955 ± 0.04 | 0.0205 ± 0.029 | -0.0075 ± 0.0092 | -0.0445 ± 0.0078 | -0.0085 ± 0.093 | 0.0125 ± 0.013 | -0.0265 ± 0.00071 | 0 ± 0.011 | -0.005 ± 0.014 | -0.0365 ± 0.00071 | 0.0155 ± 0.037 | -0.0245 ± 0.043 | -0.0365 ± 0.028 | 0.0175 ± 0.005 |
| MyoF:PAI-I | -0.0005 ± 0.021 | 0.006 ± 0.017 | 0.0055 ± 0.015 | 0.0135 ± 0.019 | 0.006 ± 0.0071 | -0.0885 ± 0.046 | -0.005 ± 0.0042 | 0.0045 ± 0.0064 | 0.005 ± 0.02 | -0.005 ± 0.0057 | -0.007 ± 0.0042 | -0.006 ± 0.0099 | -0.0005 ± 0.00071 | -0.009 ± 0.013 | 0.0015 ± 0.011 | -0.008 ± 0.011 | -0.009 ± 0.0042 | 0.0185 ± 0.019 |
| MyoF:SRB | -0.001 ± 0.0028 | -0.0065 ± 0.00071 | -0.0045 ± 0.00071 | -0.0135 ± 0.0035 | -0.136 ± 0.0021 | -0.0815 ± 0.0064 | 0.0005 ± 0.012 | -0.005 ± 0.0014 | -0.024 ± 0.0071 | -0.004 ± 0.0028 | -0.003 ± 0.0014 | 0.0025 ± 0.0021 | -0.005 ± 0.0071 | -0.005 | -0.0015 ± 0.0064 | -0.0005 ± 0.0021 | -0.009 ± 0.0014 | -0.0035 ± 0.0035 |
| MyoF:TIMP-1 | -0.005 ± 0.023 | -0.012 ± 0.023 | 0.0125 ± 0.022 | -0.007 ± 0.027 | -0.098 ± 0.018 | -0.112 ± 0.0085 | -0.0545 ± 0.025 | -0.023 ± 0.023 | -0.0085 ± 0.077 | -0.0245 ± 0.091 | -0.042 ± 0.064 | -0.0345 ± 0.025 | 0.003 ± 0.0014 | 0.036 ± 0.028 | 0.0775 ± 0.025 | -0.0185 ± 0.0035 | 0.0095 ± 0.021 | -0.008 ± 0.018 |
